In brackets after ≈: the same amount, converted by molar mass. Like-named read-outs stand apart in the source and are kept apart here.
Tests used:
[1] = type: in vitro ADME; settings: for Metabolic Stability H (% Rem.): human liver microsomes; for Metabolic Stability M (% Rem.): mouse liver microsomes; for Metabolic Stability R (% Rem.): rat liver microsomes
Protocol: 3.2. Microsomal stability
The metabolic stability assay was performed in duplicate in a 96-well micro titre plate. The test compounds (0.1 μM) were incubated individually in mouse, rat and pooled human liver microsomes ((final protein concentration of 0.4 mg/mL; XenoTech, Lenexa, KS ), suspended in 0.1M phosphate buffer (pH 7.4) at 37 °C for predetermined time points, in the presence and absence of the cofactor NADPH (1 mM). Reactions were quenched by adding ice cold acetonitrile containing internal standard (carbamazepine, 0.0236 µg/mL). T he samples were centrifuged and test compound in the supernatant were analysed by means of LC -MS/MS (Agilent Rapid Resolution HPLC, AB SCIEX 4500 MS ). The relative loss of parent compound over time was monitored and plots (concentration vs. time) were prepared per compound to determine the first order rate constant for compound depletion. This was in turn used to calculate half-life, in vitro intrinsic clearance and in vivo hepatic extraction ratio. Metabolite searches were not conducted during the metabolic stability assay. 5

[2] = physchem; type: physicochemical; settings: for solubility: kinetic solubility, pH 7.4, HPLC method
Protocol: The kinetic solubility assay was performed using a miniaturised shake flask method. 10 mM stock solutions of each of the test compounds were used to prepare calibration standards (10-220μM) in DMSO. The same 10mM stock solutions were accurately dispensed in duplicate into 96-well plates and the DMSO dried down (MiVac GeneVac, 90 min, 37 °C). Thereafter, the samples were reconstituted (200 µM) in phosphate buffered saline (pH 7.4) and shaken (20 hours, 25 °C). The solutions were filtered and analysed by means of HPLC -DAD (Agilent 1200 Rapid Resolution HPLC with a diode array detector). […]

[3] = test system: Mtb H37Rv strain; test: MIC90 determination in GASTE-Fe media (broth microdilution); type: cell-based, Mycobacterium tuberculosis; set-up: fold loss in activity/potency (MIC90): reference not given here
[4] = in vitro; settings: Chinese hamster
[5] = Mycobacterium tuberculosis, H37RV, 336 h, read-out: MIC90 GAST-Fe
[6] = Mycobacterium tuberculosis, H37RV, 336 h, Mtb H37Rv, replicating conditions, GASTE-Fe media, read 14 days after incubation, read-out: MIC90 GASTE-Fe
[7] = Mtb H37Rv, replicating conditions, GASTE-Fe media, read 14 days after incubation, read-out: MIC90 GASTE-Fe

Compound	Metabolic Stability H (% Rem.) [1]	Metabolic Stability M (% Rem.) [1]	Metabolic Stability R (% Rem.) [1]	solubility ([2]; 25 °C, pH 7.4, aqueous buffer)	MIC90 [3, 5]	MIC90 [3, 6]	other results
COc1ccc(-n2c(N)nc3ccc(-c4cccc([S+](C)[O-])c4)cc3c2=O)cc1 (stereo not drawn) [compound 53]	100 % Rem.	99 % Rem.	103 % Rem.	> 100 µM	6.75 µM (≈ 2.74 µg/mL)		solubility [2]: 128 µM (≈ 51.9 µg/mL)
Nc1nc2ccc(-c3cccnc3)cc2c(=O)n1-c1ccc(C(F)(F)F)cc1 [compound 22]	68/-/- % Rem.			20 µM (≈ 7.65 µg/mL)		0.625 µM (≈ 0.239 µg/mL)	IC50 [4]: > 100 µM
C[S+]([O-])c1cccc(-c2ccc3nc(N)n(-c4ccc(O)cc4)c(=O)c3c2)c1 (stereo not drawn) [compound 52]					> 125 µM		
CN(C)c1nc2ccc(-c3cccc(S(C)(=O)=O)c3)cc2c(=O)n1-c1ccc(C(F)(F)F)cc1 [compound 43, 2-(Dimethylamino)-6-(3-(methylsulfonyl)phenyl)-3-(4-(trifluoromethyl)phenyl)quinazolin-4(3H)-one]	85 % Rem.	90 % Rem.	94 % Rem.	21.6 µM (≈ 10.5 µg/mL)		> 125 µM	MIC90 [3, 7]: >125 µM
CS(=O)(=O)c1cccc(-c2ccc3c(=O)n(-c4ccc(C(F)(F)F)cc4)c(N)nc3c2)c1 [compound 30]	99/99/99 % Rem.	99/99/99 % Rem.	99/99/99 % Rem.	< 5 µM		1.39 µM (≈ 0.639 µg/mL)	IC50 [4]: > 50 µM
Nc1nc2ccc(-c3cccc(C(=O)N4CCSCC4)c3)cc2c(=O)n1-c1ccc(C(F)(F)F)cc1 [compound 18, 2-Amino-6-(3-(thiomorpholine-4-carbonyl)phenyl)-3-(4-(trifluoromethyl)phenyl)quinazolin-4(3H)-one]	8 % Rem.	22 % Rem.	23 % Rem.	46 µM (≈ 23.5 µg/mL)		0.656 µM (≈ 0.335 µg/mL)	IC50 [4]: > 50 µM
CN(C)c1nc2ccc(-c3cccc([S+](C)[O-])c3)cc2c(=O)n1-c1ccc(C(F)(F)F)cc1 (stereo not drawn) [compound 42, 2-(Dimethylamino)-6-(3-(methylsulfinyl)phenyl)-3-(4-(trifluoromethyl)phenyl)quinazolin-4(3H)-one]	82 % Rem.	80 % Rem.	86 % Rem.	< 5 µM		2.89 µM (≈ 1.36 µg/mL)	
C[S+]([O-])c1cccc(-c2ccc3nc(N)n(-c4ccc(S(C)(=O)=O)cc4)c(=O)c3c2)c1 (stereo not drawn) [compound 51]					> 125 µM		
CN(C)C(=O)c1cccc(-c2ccc3nc(N)n(-c4ccc(C(F)(F)F)cc4)c(=O)c3c2)c1 [compound 10]	85 % Rem.	89 % Rem.	86 % Rem.	46 µM (≈ 20.8 µg/mL)		2.15 µM (≈ 0.973 µg/mL)	IC50 [4]: 0.64 µM
Nc1nc2ccc(-c3cccc(C(F)(F)F)c3)cc2c(=O)n1-c1ccc(C(F)(F)F)cc1 [compound 28]	88/-/- % Rem.			40 µM (≈ 18 µg/mL)		0.75 µM (≈ 0.337 µg/mL)	IC50 [4]: > 100 µM
CNC(=O)c1cncc(-c2ccc3nc(N)n(-c4ccc(C(F)(F)F)cc4)c(=O)c3c2)c1 [compound 12]	85 % Rem.	75 % Rem.	85 % Rem.	40 µM (≈ 17.6 µg/mL)		9.22 µM (≈ 4.05 µg/mL)	solubility [2]: 39 µM (≈ 17.1 µg/mL); fold loss in activity/potency (MIC90) [3]: 10 fold
C[S+]([O-])c1cccc(-c2ccc3nc(N)n(-c4cccc(C(F)(F)F)c4)c(=O)c3c2)c1 (stereo not drawn) [compound 34]	50 % Rem.	51 % Rem.	58 % Rem.	> 100 µM	14.8 µM (≈ 6.56 µg/mL)		solubility [2]: 164 µM (≈ 72.7 µg/mL)
NC[C@H]1O[C@H](O[C@H]2[C@H](O)[C@@H](O[C@H]3O[C@H](CO)[C@@H](O)[C@H](N)[C@H]3O)[C@H](N)C[C@@H]2N)[C@H](O)[C@@H](O)[C@@H]1O [Kanamycin, reference compound]							MIC90 [3, 7]: 1.562 µM (≈ 0.757 µg/mL)
Cc1ccc(-n2c(N)nc3ccc(-c4cccc([S+](C)[O-])c4)cc3c2=O)cc1 (stereo not drawn) [compound 36]	99 % Rem.	71 % Rem.	68 % Rem.	> 100 µM	3.09 µM (≈ 1.2 µg/mL)		solubility [2]: 172 µM (≈ 67 µg/mL)
C[S+]([O-])c1cccc(-c2ccc3nc(N)n(C4CCC(C(F)(F)F)CC4)c(=O)c3c2)c1 (stereo not drawn) [compound 57]					2.75 µM (≈ 1.24 µg/mL)		
C[S+]([O-])c1cccc(-c2ccc3nc(N)n(-c4ccc(F)cc4)c(=O)c3c2)c1 (stereo not drawn) [compound 49]	82 % Rem.	96 % Rem.	93 % Rem.	37.8 µM (≈ 14.9 µg/mL)	4.84 µM (≈ 1.9 µg/mL)		solubility [2]: 38 µM (≈ 15 µg/mL)

Compound	Metabolic Stability H (% Rem.) [1]	Metabolic Stability M (% Rem.) [1]	Metabolic Stability R (% Rem.) [1]	solubility ([2]; 25 °C, pH 7.4, aqueous buffer)	MIC90 [3, 5]	MIC90 [3, 6]	other results
C[S+]([O-])c1cccc(-c2ccc3nc(N)n(-c4ccc(C(F)(F)F)nc4)c(=O)c3c2)c1 (stereo not drawn) [compound 47, 2-Amino-6-(3-(methylsulfinyl)phenyl)-3-(6-(trifluoromethyl)pyridin-3-yl)quinazolin-4(3H)-one]	93 % Rem.	93 % Rem.	99 % Rem.	< 5 µM	0.922 µM (≈ 0.41 µg/mL)		
COc1cncc(-c2ccc3nc(N)n(-c4ccc(C(F)(F)F)cc4)c(=O)c3c2)c1 [compound 24]	72/-/- % Rem.			40 µM (≈ 16.5 µg/mL)			IC50 [4]: > 100 µM
C[S+]([O-])c1cccc(-c2ccc3nc(N)n(-c4ccccc4C(F)(F)F)c(=O)c3c2)c1 (stereo not drawn) [compound 48]					> 125 µM		
C[S+]([O-])c1cccc(-c2ccc3nc(N)n(-c4ccccc4F)c(=O)c3c2)c1 (stereo not drawn) [compound 50]					67 µM (≈ 26.4 µg/mL)		
CC(C)(C)c1cccc(-c2ccc3nc(N)n(-c4ccc(C(F)(F)F)cc4)c(=O)c3c2)c1 [compound 26]						10 µM (≈ 4.37 µg/mL)	IC50 [4]: > 100 µM
C[S+]([O-])c1cccc(-c2ccc3nc(N)n(-c4cccc(C#N)c4)c(=O)c3c2)c1 (stereo not drawn) [compound 55]					43 µM (≈ 17.2 µg/mL)		
NC(=O)c1cccc(-c2ccc3c(=O)n(-c4ccc(C(F)(F)F)cc4)c(N)nc3c2)c1 [compound 33]	96 % Rem.	92 % Rem.	93 % Rem.	58 µM (≈ 24.6 µg/mL)		1.22 µM (≈ 0.518 µg/mL)	fold improvement in solubility ([2]; pH 7.4, relative to comparator analogue): 10 fold
C[S+]([O-])c1cccc(-c2ccc3nc(N)n(C4CCC(F)(F)CC4)c(=O)c3c2)c1 (stereo not drawn) [compound 56]	95 % Rem.	83 % Rem.	81 % Rem.	> 100 µM	45.7 µM (≈ 19.1 µg/mL)		solubility [2]: 125 µM (≈ 52.2 µg/mL)
C[S+]([O-])c1cccc(-c2ccc3nc(N)n(Cc4ccc(C(F)(F)F)cc4)c(=O)c3c2)c1 (stereo not drawn) [compound 58]	52 % Rem.	69 % Rem.	61 % Rem.	> 100 µM	> 31 µM		solubility [2]: 104 µM (≈ 47.6 µg/mL)
C[S+]([O-])c1cccc(-c2ccc3nc(N)n(-c4ccc(C#N)cc4)c(=O)c3c2)c1 (stereo not drawn) [compound 54]	92 % Rem.	91 % Rem.	98 % Rem.	16.3 µM (≈ 6.53 µg/mL)	9.28 µM (≈ 3.72 µg/mL)		solubility [2]: 16 µM (≈ 6.41 µg/mL)
Nc1nc2ccc(-c3cncc(C(=O)N4CCOCC4)c3)cc2c(=O)n1-c1ccc(C(F)(F)F)cc1 [compound 17, 2-Amino-6-(5-(morpholine-4-carbonyl)pyridin-3-yl)-3-(4-(trifluoromethyl)phenyl)quinazolin-4(3H)-one]						83 µM (≈ 41.1 µg/mL)	fold loss in activity/potency (MIC90) [3]: 15 fold
COc1cccc(-c2ccc3nc(N)n(-c4ccc(C(F)(F)F)cc4)c(=O)c3c2)c1 [compound 25]						10 µM (≈ 4.11 µg/mL)	
Nc1nc2ccc(-c3cccc(Cl)c3)cc2c(=O)n1-c1ccc(C(F)(F)F)cc1 [compound 29]	73/-/- % Rem.			< 5 µM		0.675 µM (≈ 0.281 µg/mL)	
CS(=O)(=O)c1cccc(-c2ccc3ncn(-c4ccc(C(F)(F)F)cc4)c(=O)c3c2)c1 [compound 38, 6-(3-(Methylsulfonyl)phenyl)-3-(4-(trifluoromethyl)phenyl)quinazolin-4(3H)-one]				< 5 µM		2.96 µM (≈ 1.32 µg/mL)	fold loss in activity/potency (MIC90) [3]: 10 fold
C[S+]([O-])c1cccc(-c2ccc3nc(N)n(-c4ccccc4)c(=O)c3c2)c1 (stereo not drawn) [compound 35]					33 µM (≈ 12.4 µg/mL)		MIC90 ([3]; read-out: MIC90 GAST-Fe): 33.4 µM (≈ 12.5 µg/mL)

— PMC7359024, “Synthesis, Structure–Activity Relationship, and Mechanistic Studies of Aminoquinazolinones Displaying Antimycobacterial Activity” (ACS Infectious Diseases, 2020)
